Data published in the NIST ThermoML archive (doi:10.1021/acs.jced.9b00171).

Experiments:
[1] = wn = mass fraction of the nth substance listed; details: 101.3 kPa, Liquid, Oscillating disk viscometry
[2] = refractive index (Na D-line) (dimensionless); wn = mass fraction of the nth substance listed; details: 101.3 kPa, Liquid, Standard Abbe refractometry

CNCCO [2-(methylamino)ethanol] + O
Details	refractive index, [2]	viscosity, [1] [mPa·s]
293.15 K, w1 = 0.05	1.3421	1.31
293.15 K, w1 = 0.1	1.3452	1.68
293.15 K, w1 = 0.15	1.3484	2.38
293.15 K, w1 = 0.2	1.3522	2.66
293.15 K, w1 = 0.25	1.3568	3.4
293.15 K, w1 = 0.3	1.3624	4.22
298.15 K, w1 = 0.05	1.3414	1.1
298.15 K, w1 = 0.1	1.3444	1.42
298.15 K, w1 = 0.15	1.3476	2.02
298.15 K, w1 = 0.2	1.3513	2.17
298.15 K, w1 = 0.25	1.3558	2.74
298.15 K, w1 = 0.3	1.3614	3.52
303.15 K, w1 = 0.05	1.3405	0.99
303.15 K, w1 = 0.1	1.3435	1.22
303.15 K, w1 = 0.15	1.3467	1.74
303.15 K, w1 = 0.2	1.3502	1.83
303.15 K, w1 = 0.25	1.3547	2.32
303.15 K, w1 = 0.3	1.3602	2.96
308.15 K, w1 = 0.05	1.3396	0.88
308.15 K, w1 = 0.1	1.3426	1.05
308.15 K, w1 = 0.15	1.3456	1.42
308.15 K, w1 = 0.2	1.349	1.52
308.15 K, w1 = 0.25	1.3534	1.96
308.15 K, w1 = 0.3	1.3588	2.52
313.15 K, w1 = 0.05	1.3386	0.79
313.15 K, w1 = 0.1	1.3416	0.94
313.15 K, w1 = 0.15	1.3445	1.22
313.15 K, w1 = 0.2	1.3478	1.32
313.15 K, w1 = 0.25	1.352	1.71
313.15 K, w1 = 0.3	1.3573	2.2
318.15 K, w1 = 0.05	1.3375	0.72
318.15 K, w1 = 0.1	1.3405	0.84
318.15 K, w1 = 0.15	1.3434	1.04
318.15 K, w1 = 0.2	1.3465	1.19
318.15 K, w1 = 0.25	1.3505	1.49
318.15 K, w1 = 0.3	1.3558	1.92
323.15 K, w1 = 0.05	1.3364	0.65
323.15 K, w1 = 0.1	1.3394	0.75
323.15 K, w1 = 0.15	1.3421	0.93
323.15 K, w1 = 0.2	1.3451	1.06
323.15 K, w1 = 0.25	1.349	1.29
323.15 K, w1 = 0.3	1.3542	1.65
328.15 K, w1 = 0.05	1.3352	0.58
328.15 K, w1 = 0.1	1.3381	0.67
328.15 K, w1 = 0.15	1.3406	0.83
328.15 K, w1 = 0.2	1.3436	0.94
328.15 K, w1 = 0.25	1.3474	1.12
328.15 K, w1 = 0.3	1.3524	1.41
333.15 K, w1 = 0.05	1.334	0.52
333.15 K, w1 = 0.1	1.3368	0.6
333.15 K, w1 = 0.15	1.3391	0.74
333.15 K, w1 = 0.2	1.342	0.83
333.15 K, w1 = 0.25	1.3456	0.99
333.15 K, w1 = 0.3	1.3504	1.2

NCCNCCO [N-(2-aminoethyl)ethanolamine] + O
Details	refractive index, [2]	viscosity, [1] [mPa·s]
293.15 K, w1 = 0.05	1.3406	1.2
293.15 K, w1 = 0.1	1.3452	1.6
293.15 K, w1 = 0.15	1.351	2.02
293.15 K, w1 = 0.2	1.3582	2.58
293.15 K, w1 = 0.25	1.366	3.47
293.15 K, w1 = 0.3	1.3752	4.73
298.15 K, w1 = 0.05	1.3401	1.11
298.15 K, w1 = 0.1	1.3446	1.36
298.15 K, w1 = 0.15	1.3504	1.74
298.15 K, w1 = 0.2	1.3575	2.22
298.15 K, w1 = 0.25	1.3652	2.98
298.15 K, w1 = 0.3	1.3744	3.95
303.15 K, w1 = 0.05	1.3394	0.95
303.15 K, w1 = 0.1	1.3438	1.18
303.15 K, w1 = 0.15	1.3496	1.48
303.15 K, w1 = 0.2	1.3567	1.89
303.15 K, w1 = 0.25	1.3643	2.37
303.15 K, w1 = 0.3	1.3735	3.32
308.15 K, w1 = 0.05	1.3387	0.85
308.15 K, w1 = 0.1	1.343	1.06
308.15 K, w1 = 0.15	1.3487	1.32
308.15 K, w1 = 0.2	1.3558	1.63
308.15 K, w1 = 0.25	1.3633	2.08
308.15 K, w1 = 0.3	1.3724	2.61
313.15 K, w1 = 0.05	1.3378	0.76
313.15 K, w1 = 0.1	1.3421	0.94
313.15 K, w1 = 0.15	1.3476	1.17
313.15 K, w1 = 0.2	1.3548	1.41
313.15 K, w1 = 0.25	1.3622	1.76
313.15 K, w1 = 0.3	1.3712	2.19
318.15 K, w1 = 0.05	1.3368	0.69
318.15 K, w1 = 0.1	1.341	0.84
318.15 K, w1 = 0.15	1.3464	1.03
318.15 K, w1 = 0.2	1.3536	1.24
318.15 K, w1 = 0.25	1.361	1.53
318.15 K, w1 = 0.3	1.3698	1.86
323.15 K, w1 = 0.05	1.3358	0.64
323.15 K, w1 = 0.1	1.3398	0.77
323.15 K, w1 = 0.15	1.3451	0.92
323.15 K, w1 = 0.2	1.3523	1.08
323.15 K, w1 = 0.25	1.3597	1.28
323.15 K, w1 = 0.3	1.3682	1.59
328.15 K, w1 = 0.05	1.3347	0.59
328.15 K, w1 = 0.1	1.3385	0.7
328.15 K, w1 = 0.15	1.3436	0.82
328.15 K, w1 = 0.2	1.3508	0.95
328.15 K, w1 = 0.25	1.3582	1.11
328.15 K, w1 = 0.3	1.3664	1.35
333.15 K, w1 = 0.05	1.3335	0.55
333.15 K, w1 = 0.1	1.3371	0.64
333.15 K, w1 = 0.15	1.342	0.74
333.15 K, w1 = 0.2	1.3491	0.87
333.15 K, w1 = 0.25	1.3566	1.02
333.15 K, w1 = 0.3	1.3648	1.2
